For assay [1], the target named is T1, wild-type ALK2 (aa172-499) (Homo sapiens (Human), UniProt Q04771). The assay is described as follows: ADPGlo biochemical autophosphorylation assay, ALK2. As to conditions: 15 μm ATP, 60 min at 32° C.
Assay [2] addresses ALK3 (aa198-525) (Homo sapiens (Human), UniProt P36894). The assay is described as follows: ADPGlo biochemical autophosphorylation assay, ALK3. As to conditions: 15 μm ATP, 60 min at 32° C.
In assay [3] the target is T1, wild-type ALK2 (aa172-499). The assay is described as follows: Caliper biochemical peptide phosphorylation assay, ALK2. As to conditions: 15 μm ATP, 60 min at 30° C.; read-out: ALK2 EPK (IC50).
For assay [4], the target named is ALK1 (aa166-493) (Homo sapiens (Human), UniProt P37023). The assay is described as follows: Caliper biochemical peptide phosphorylation assay, ALK1. As to conditions: 15 μm ATP, 60 min at 30° C.; read-out: ALK1 EPK (IC50).
Assay [5] deals with ALK5 (aa162-503) (Homo sapiens (Human), UniProt P36897). The assay is described as follows: Caliper biochemical peptide phosphorylation assay, ALK5. Particulars: 15 μm ATP, 60 min at 30° C.; read-out: ALK5 EPK (IC50).
The target of assay [6] is ALK6 (aa168-495) (Homo sapiens (Human), UniProt O00238). The assay is described as follows: Caliper biochemical peptide phosphorylation assay, ALK6. As to conditions: 15 μm ATP, 60 min at 30° C.; read-out: ALK6 EPK (IC50).
In assay [7] the test system is BMP response element (BRE) luciferase reporter in HuH7 cells, BMP6 stimulated. The assay is described as follows: BMP signaling reporter gene assay. The assay is classed as cell-based. Particulars: Homo sapiens, Huh-7; HuH7 BRE-luciferase, BMP6 100 ng/ml, 5 hours; read-out: MSD BMP RGA IC50.

Drawing on patent US10710980B2, “Aminopyridine derivatives and their use as selective ALK-2 inhibitors” (priority 2016, dated 2020), this text covers IC50 for 13 molecules.

Chain of ALK6 (aa168-495) (O00238 168-495): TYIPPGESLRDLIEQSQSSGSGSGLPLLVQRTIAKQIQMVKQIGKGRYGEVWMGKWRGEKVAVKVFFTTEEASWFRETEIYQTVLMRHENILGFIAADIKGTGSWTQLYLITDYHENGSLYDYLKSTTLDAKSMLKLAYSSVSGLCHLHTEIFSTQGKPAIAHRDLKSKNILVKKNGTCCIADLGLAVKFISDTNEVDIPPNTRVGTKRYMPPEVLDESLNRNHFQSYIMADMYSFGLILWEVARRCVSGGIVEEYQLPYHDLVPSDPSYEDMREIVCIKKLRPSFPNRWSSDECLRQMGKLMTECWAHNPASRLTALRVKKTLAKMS
T1 sequence (Q04771 172-499): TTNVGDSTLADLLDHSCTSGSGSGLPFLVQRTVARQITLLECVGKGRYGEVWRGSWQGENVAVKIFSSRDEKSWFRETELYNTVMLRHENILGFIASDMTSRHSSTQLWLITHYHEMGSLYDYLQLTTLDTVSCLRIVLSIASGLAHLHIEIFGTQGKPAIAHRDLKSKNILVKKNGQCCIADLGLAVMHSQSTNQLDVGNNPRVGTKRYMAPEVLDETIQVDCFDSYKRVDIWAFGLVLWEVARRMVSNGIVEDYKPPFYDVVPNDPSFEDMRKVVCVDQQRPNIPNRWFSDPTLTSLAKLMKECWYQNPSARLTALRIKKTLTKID
Chain of ALK5 (aa162-503) (P36897 162-503): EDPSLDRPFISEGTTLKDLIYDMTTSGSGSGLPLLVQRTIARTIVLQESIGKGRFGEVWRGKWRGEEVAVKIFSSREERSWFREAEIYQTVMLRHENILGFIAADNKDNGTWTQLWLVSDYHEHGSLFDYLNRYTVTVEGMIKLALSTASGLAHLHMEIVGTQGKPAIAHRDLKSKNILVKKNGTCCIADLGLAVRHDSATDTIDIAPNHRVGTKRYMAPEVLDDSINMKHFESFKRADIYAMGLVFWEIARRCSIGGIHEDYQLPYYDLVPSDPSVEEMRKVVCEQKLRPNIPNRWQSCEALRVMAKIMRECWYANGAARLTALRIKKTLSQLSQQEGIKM
Chain of ALK1 (aa166-493) (P37023 166-493): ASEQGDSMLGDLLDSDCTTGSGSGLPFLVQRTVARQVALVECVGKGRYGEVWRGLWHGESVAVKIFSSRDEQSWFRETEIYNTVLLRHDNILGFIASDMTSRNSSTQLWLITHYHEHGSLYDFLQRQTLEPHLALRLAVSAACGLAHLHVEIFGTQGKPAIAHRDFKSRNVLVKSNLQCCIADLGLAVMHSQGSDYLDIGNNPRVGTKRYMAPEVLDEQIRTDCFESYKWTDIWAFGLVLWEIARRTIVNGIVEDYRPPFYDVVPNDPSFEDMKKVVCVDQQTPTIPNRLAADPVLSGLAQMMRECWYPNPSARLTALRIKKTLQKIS
Chain of ALK3 (aa198-525) (P36894 198-525): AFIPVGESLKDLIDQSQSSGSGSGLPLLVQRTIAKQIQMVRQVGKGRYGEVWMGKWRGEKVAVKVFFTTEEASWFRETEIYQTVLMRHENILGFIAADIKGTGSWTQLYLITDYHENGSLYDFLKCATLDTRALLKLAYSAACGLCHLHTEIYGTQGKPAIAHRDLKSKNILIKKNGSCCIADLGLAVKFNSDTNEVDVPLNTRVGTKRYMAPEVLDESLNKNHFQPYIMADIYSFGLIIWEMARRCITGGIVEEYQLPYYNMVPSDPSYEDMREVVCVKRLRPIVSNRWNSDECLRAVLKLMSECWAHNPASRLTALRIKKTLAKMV

`C[C@H](c1ccc(-c2cnc(N)c(C(=O)N[C@H]3CC[C@H](O)CC3)c2)c(Cl)c1)N1CC2(COC2)C1` [Example 55, 5-(4-((R)-1-(2-oxa-6-azaspiro[3.3]heptan-6-yl)ethyl)-2-chlorophenyl)-2-amino-N-((1r,4R)-4-hydroxycyclohexyl)nicotinamide]: the IC50 in assay [1] was 22 nM; in assay [2] it was 2440 nM; in assay [3] it was 30 nM; in assay [4] it was 627 nM; in assay [5], 5.03 µM; in assay [6], 2.9 µM. Further, the IC50 in assay [7] was 543 nM.
As for `C[C@@H]1CCCN1Cc1ccc(-c2cnc(N)c(C(=O)N[C@H]3CC[C@](C)(O)CC3)c2)c(F)c1` [Example 56, 2-amino-5-(2-fluoro-4-(((R)-2-methylpyrrolidin-1-yl)methyl)phenyl)-N-((1r,4R)-4-hydroxy-4-methylcyclohexyl)nicotinamide], the IC50 was determined as 28 nM in assay [1]; 9900 nM in assay [2]; 30 nM in assay [3]; 930 nM in assay [4]; 5.8 µM in assay [5]; 10 µM in assay [6]. For the same molecule, the IC50 in assay [7] was 285 nM.
For the molecule `C[C@]1(O)CC[C@H](NC(=O)c2cc(-c3ccc([C@]45C[C@H]4CN(C4CCC(F)(F)CC4)C5)cc3)cnc2N)CC1` [Example 58, 2-amino-5-(4-((1S,5R)-3-(4,4-difluorocyclohexyl)-3-azabicyclo[3.1.0]hexan-1-yl)phenyl)-N-((1r,4S)-4-hydroxy-4-methylcyclohexyl)nicotinamide], the IC50 in assay [1] worked out at 25 nM; in assay [2] it was 3720 nM; in assay [3], 32 nM; in assay [4], 663 nM; in assay [5], 7.55 µM; in assay [6], 8.4 µM. Also, the IC50 in assay [7] is 143 nM.
In the case of `C[C@H](c1ccc(-c2cnc(N)c(C(=O)N[C@H]3CC[C@](C)(O)CC3)c2)cc1)N1CC2(COC2)C1` [Example 59, 5-(4-((R)-1-(2-oxa-6-azaspiro[3.3]heptan-6-yl)ethyl)phenyl)-2-amino-N-((1r,4R)-4-hydroxy-4-methylcyclohexyl)nicotinamide], the IC50 in assay [1] is 24 nM; in assay [2], 2700 nM; in assay [3] it was 33 nM; in assay [4], 770 nM; in assay [5] it was 9.1 µM; in assay [6], 7.7 µM. In addition, in assay [7], the IC50 was found to be 405 nM.
As to `CC#CCN1C[C@H]2C[C@@]2(c2ccc(-c3cnc(N)c(C(=O)N[C@H]4CC[C@H](O)CC4)c3)cc2)C1` [Example 60, 2-amino-5-(4-((1R,5S)-3-(but-2-yn-1-yl)-3-azabicyclo[3.1.0]hexan-1-yl)phenyl)-N-((1r,4R)-4-hydroxycyclohexyl)nicotinamide], the IC50 in assay [1] is 11 nM; in assay [2], 990 nM; in assay [3] it was 42 nM; in assay [4] it was 170 nM; in assay [5], 6.3 µM; in assay [6], 6.3 µM. Besides, the IC50 in assay [7] is 84 nM.
For the molecule `Nc1ncc(-c2ccc(N3CCCCC3)cc2)cc1C(=O)NC1CCCCC1` [Example 61, 2-amino-N-cyclohexyl-5-(4-(piperidin-1-yl)phenyl)nicotinamide], the IC50 in assay [1] came to 43 nM; in assay [2], 2100 nM; in assay [3] it was 35 nM; in assay [4], 940 nM; in assay [5] it was 7.2 µM; in assay [6] it was 20.2 µM. Further, the IC50 in assay [7] was 2300 nM.
With `Nc1ncc(-c2ccc([C@]34C[C@H]3CN(C3COC3)C4)cc2)cc1C(=O)NC12CCC(O)(CC1)CC2` [Example 63, 2-amino-N-(4-hydroxybicyclo[2.2.2]octan-1-yl)-5-(4-((1S,5R)-3-(oxetan-3-yl)-3-azabicyclo[3.1.0]hexan-1-yl)phenyl)nicotinamide], the IC50 in assay [1] was determined as 91 nM; in assay [2] it was 1800 nM; in assay [3], 57 nM; in assay [4], 940 nM; in assay [5] it was 6.7 µM; in assay [6], 3.5 µM. Moreover, the IC50 in assay [7] stood at 390 nM.
Take `Nc1ncc(-c2ccc([C@@]34C[C@@H]3CN(C3COC3)C4)cc2)cc1C(=O)NC12CCC(O)(CC1)CC2` [Example 64, 2-amino-N-(4-hydroxybicyclo[2.2.2]octan-1-yl)-5-(4-((1R,5S)-3-(oxetan-3-yl)-3-azabicyclo[3.1.0]hexan-1-yl)phenyl)nicotinamide]: the IC50 in assay [1] stood at 110 nM; in assay [2], 2200 nM; in assay [3] it was 63 nM; in assay [4] it was 1000 nM; in assay [5] it was 7.5 µM; in assay [6], 3.8 µM. Further, in assay [7], the IC50 turned out to be 380 nM.
Regarding `CN1CCN(CCNC(=O)c2ccc(-c3cnc(N)c(C(=O)NC4CCCCC4)c3)cc2)CC1` [Example 65, 2-amino-N-cyclohexyl-5-(4-((2-(4-methylpiperazin-1-yl)ethyl)carbamoyl)phenyl)nicotinamide], the IC50 in assay [1] is 82 nM; in assay [2] it was 2400 nM; in assay [3] it was 44 nM; in assay [4] it was 580 nM; in assay [5] it was 1.7 µM; in assay [6] it was 10 µM. In addition, the IC50 in assay [7] came to 415 nM.
With `Nc1ncc(-c2ccc([C@]34C[C@H]3CN(C(CF)CF)C4)cc2)cc1C(=O)N[C@H]1CC[C@H](O)CC1` [Example 66, 2-amino-5-(4-((1S,5R)-3-(1,3-difluoropropan-2-yl)-3-azabicyclo[3.1.0]hexan-1-yl)phenyl)-N-((1r,4S)-4-hydroxycyclohexyl)nicotinamide], the IC50 was 15 nM in assay [1]; 1200 nM in assay [2]; 56 nM in assay [3]; 190 nM in assay [4]; 10 µM in assay [5]; 6.2 µM in assay [6]. Further, the IC50 in assay [7] was 910 nM.
On to `Nc1ncc(-c2ccc([C@]34C[C@H]3CN(CC(F)(F)F)C4)cc2)cc1C(=O)N[C@H]1CC[C@H](O)CC1` [Example 67, 2-amino-N-((1r,4S)-4-hydroxycyclohexyl)-5-(4-((1S,5R)-3-(2,2,2-trifluoroethyl)-3-azabicyclo[3.1.0]hexan-1-yl)phenyl)nicotinamide], for which the IC50 in assay [1] came out at 22 nM; in assay [2], 1900 nM; in assay [3], 50 nM; in assay [4] it was 180 nM; in assay [5], 10 µM; in assay [6], 8.7 µM. For the same molecule, the IC50 in assay [7] was determined as 1160 nM.
As to `C[C@H](c1ccc(-c2cnc(N)c(C(=O)NC34CC5CC(CC(O)(C5)C3)C4)c2)cc1)N1CC2(COC2)C1` [Example 68, 5-(4-((R)-1-(2-oxa-6-azaspiro[3.3]heptan-6-yl)ethyl)phenyl)-2-amino-N-((1r,3R)-3-hydroxyadamantan-1-yl)nicotinamide], the IC50 came to 34 nM in assay [1]; 8000 nM in assay [2]; 49 nM in assay [3]; 2500 nM in assay [4]; 10 µM in assay [5]; 10 µM in assay [6]. Also, the IC50 in assay [7] was 950 nM.
On to `Nc1ncc(-c2ccc(C(=O)N3CCOCC3)cc2)cc1C(=O)NC1CCCCC1` [Example 69, 2-amino-N-cyclohexyl-5-(4-(morpholine-4-carbonyl)phenyl)nicotinamide], for which the concentration for half-maximal inhibition (IC50) is 41 nM in assay [1]; 3100 nM in assay [2]; 52 nM in assay [3]; 1100 nM in assay [4]; 5.2 µM in assay [5]; 9 µM in assay [6]. In addition, in assay [7], the IC50 turned out to be 1100 nM.
